Laboratory results taken from paper PMC5325569, “A new synthetic matrix metalloproteinase inhibitor reduces human mesenchymal stem cell adipogenesis” (PLoS ONE, 2017).
One block for each compound: values may come before it.

Legend:
hMSCs [1] = assay: Adipogenic differentiation, lipid accumulation, co-treatment with T0070907; format: cell-based, human; details: 10 μM compound with 10 μM T0070907
Procedure: (§1) Human MSCs were seeded into 6-well plates at 1,000 cells/cm^2. Upon reaching 70–80% confluence hMSCs were induced towards an adipogenic lineage by adding dexamethasone (0.5 μM), 3-isobutyl-1-methylxanthine ([…]), and indomethacin (50 μM) to the culture medium. Tested compounds were dissolved in DMSO and added to treatment wells during differentiation to a final total concentration of 10 μM with DMSO concentrations remaining constant (0.125% or 0.25% v/v) between conditions. Wells treated with appropriate concentrations of DMSO alone served as controls. Media and treatments were refreshed every 72 h for 21 days.
(§2) After 21 days of differentiation, hMSCs were washed with PBS and fixed with neutral buffered formalin for 1 h. Cells were then stained with 0.3% (w/v) Oil Red-O in 3:2 100% isopropyl alcohol to PBS for 20 min, washed with PBS, stained with 5 μg/mL Hoechst 33342 for 5 min, then washed again. Cultures were later imaged with an epifluorescence capable Nikon TE2000-E2 Eclipse microscope. Relative staining was determined with ImageJ (version 1.46c, National Institutes of Health, Bethesda, MD) by standardizing the area stained in each image to nuclei number prior to normalizing against DMSO treated controls.

MMP-9 = biological target: T1, MMP-9 (Homo sapiens, UniProt P14780); assay: Fluorogenic substrate enzyme inhibition assay, MMP-9; format: biochemical; details: 25°C, HEPES pH 7.5, 5 μM TCEP, fluorogenic substrate 1 μM
T1 construct: human neutrophil gelatinase B was purified from human blood; from tissue; host or cells: human blood (neutrophils)
T1 sequence (P14780 94-707): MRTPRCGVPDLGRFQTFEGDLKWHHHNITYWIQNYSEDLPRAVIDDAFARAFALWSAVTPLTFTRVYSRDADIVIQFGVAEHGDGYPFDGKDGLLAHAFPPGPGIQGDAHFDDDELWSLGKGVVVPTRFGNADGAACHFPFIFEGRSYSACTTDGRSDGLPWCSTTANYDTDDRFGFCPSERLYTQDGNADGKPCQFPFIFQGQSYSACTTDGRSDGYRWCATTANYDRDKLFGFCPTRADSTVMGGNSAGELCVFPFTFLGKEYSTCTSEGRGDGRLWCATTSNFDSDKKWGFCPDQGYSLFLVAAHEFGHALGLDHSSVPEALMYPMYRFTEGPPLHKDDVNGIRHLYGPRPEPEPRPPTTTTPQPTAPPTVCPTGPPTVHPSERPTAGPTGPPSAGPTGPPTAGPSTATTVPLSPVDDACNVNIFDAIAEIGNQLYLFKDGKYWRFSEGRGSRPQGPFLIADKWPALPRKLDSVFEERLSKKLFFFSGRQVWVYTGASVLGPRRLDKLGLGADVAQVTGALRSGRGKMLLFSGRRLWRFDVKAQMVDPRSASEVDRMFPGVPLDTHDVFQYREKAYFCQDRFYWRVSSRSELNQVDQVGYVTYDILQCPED
Procedure: (§3) Enzymatic assays to characterize inhibitor potency were performed as previously described. Assays were performed at 25°C in 50 mM 4-(2-hydroxyethyl)-1-piperazineethanesulfonic acid (HEPES) buffer at pH 7.5 with 10 mM CaCl2, 200 mM NaCl, 0.01% (w/v) Brij-35, and 5 μM tris(2-carboxyethyl)[…] (TCEP). […] Briefly, 10 μL of inhibitor solution or control (100% DMSO), 176 μL of assay buffer, and 10 μL of enzyme solution were mixed and incubated for 30 min prior to initiation of the assay, which was accomplished by adding 4 μL of substrate solution, 5% final concentration DMSO. […] Inhibitor potency was determined via comparison of relative rates (vi/vo).

[2] = design: method as in PMID 23631440; details: standard enzyme inhibition assay conditions; cited from earlier work
PPARγ [3] = assay: qPCR of PPARγ gene expression in hMSCs undergoing adipogenesis; format: cell-based, human; details: 10 μM, 21 days, harvested every 72 h, vs DMSO controls
Procedure: (§4) MMPI treated and untreated hMSCs were collected every 72 h over 21 days of differentiation. Total RNA from each time point was isolated using the E.Z.N.A. Total RNA Kit I (Omega Bio-Tek, Norcross, GA) and purified with the DNA-free RNA Kit (Zymo Research, Irvine, CA). RNA was resuspended in nuclease-free water, with concentrations determined via a Nanodrop UV-Vis Spectrophotometer (ThermoFisher Scientific, Waltham, MA). 500 ng of RNA was used for cDNA synthesis using qScript cDNA SuperMix (Quanta Bioscience, Gaitherburg, MD). 100 ng/μL cDNA was used as template for quantitative PCR on a 7500 Fast Real Time PCR system (Life Technologies, Carlsbad, CA) using PerfeCTa SYBR® Green SuperMix, Low Rox (Quanta Bioscience). Relative gene expression was determined via the 2^^(-ΔΔCt) method. Expression levels of PPARγ (peroxisome-proliferator activated receptor gamma) were determined. β-Actin was used as an endogenous control. Primers were designed with Primer-BLAST (NCBI) and purchased from Integrated DNA Technologies (IDT, Coralville, IA). MMP-2: forward: 5’-[…]-3’ reverse: 5’-[…]-3’; MMP-14: forward: 5’-[…]-3’ Reverse: 5’-[…]-3’; PPARγ: forward: 5’-[…]-3’ reverse: 5’-[…]-3’; β-Actin: forward: 5’-[…]-3’ reverse: 5’-[…]-3’.

MMP-14 [4] = assay: qPCR of MMP-14 gene expression in hMSCs undergoing adipogenesis; format: cell-based, human; details: 10 μM
Procedure: as §4

MMP-2 [5] = assay: qPCR of MMP-2 gene expression in hMSCs undergoing adipogenesis; format: cell-based, human; details: 10 μM
Procedure: as §4

MMP-7 = biological target: T2, MMP-7 (Homo sapiens, UniProt P09237); assay: Fluorogenic substrate enzyme inhibition assay, MMP-7; format: biochemical; details: 25°C, HEPES pH 7.5, 5 μM TCEP, fluorogenic substrate 1 μM
T2 construct: gift of Dr. Harold E. Van Wart (Syntex, Palo Alto, CA)
T2 sequence (P09237 95-267): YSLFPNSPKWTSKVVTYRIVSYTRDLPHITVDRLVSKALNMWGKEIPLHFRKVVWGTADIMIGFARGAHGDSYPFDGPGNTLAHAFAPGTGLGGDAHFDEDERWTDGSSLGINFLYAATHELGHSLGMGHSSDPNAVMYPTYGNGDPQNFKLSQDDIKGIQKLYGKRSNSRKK
Procedure: (§5) Enzymatic assays to characterize inhibitor potency were performed as previously described. Assays were performed at 25°C in 50 mM 4-(2-hydroxyethyl)-1-piperazineethanesulfonic acid (HEPES) buffer at pH 7.5 with 10 mM CaCl2, 200 mM NaCl, 0.01% (w/v) Brij-35, and 5 μM tris(2-carboxyethyl)[…] (TCEP). The fluorogenic substrate Mca-PLGLDpa-AR-NH2 (M-1895, Bachem, Torrance, CA) was used at a concentration of 1 μM as the substrate to measure inhibition constants. Briefly, 10 μL of inhibitor solution or control (100% DMSO), 176 μL of assay buffer, and 10 μL of enzyme solution were mixed and incubated for 30 min prior to initiation of the assay, which was accomplished by adding 4 μL of substrate solution, 5% final concentration DMSO. The release of product was monitored by fluorescence (λex = 328 nm, λem = 393 nm) with a PerkinElmer luminescence spectrophotometer LS50B (FL WinLab v3.0) connected to a temperature-controlled water bath. Inhibitor potency was determined via comparison of relative rates (vi/vo).

MMP-1 = biological target: T3, MMP-1 (Homo sapiens, UniProt P03956); assay: Fluorogenic substrate enzyme inhibition assay, MMP-1; format: biochemical; details: 25°C, HEPES pH 7.5, 5 μM TCEP, fluorogenic substrate 1 μM
T3 construct: gift of Dr. L. Jack Windsor (Indiana University, Indianapolis, IN)
T3 sequence (P03956 100-469): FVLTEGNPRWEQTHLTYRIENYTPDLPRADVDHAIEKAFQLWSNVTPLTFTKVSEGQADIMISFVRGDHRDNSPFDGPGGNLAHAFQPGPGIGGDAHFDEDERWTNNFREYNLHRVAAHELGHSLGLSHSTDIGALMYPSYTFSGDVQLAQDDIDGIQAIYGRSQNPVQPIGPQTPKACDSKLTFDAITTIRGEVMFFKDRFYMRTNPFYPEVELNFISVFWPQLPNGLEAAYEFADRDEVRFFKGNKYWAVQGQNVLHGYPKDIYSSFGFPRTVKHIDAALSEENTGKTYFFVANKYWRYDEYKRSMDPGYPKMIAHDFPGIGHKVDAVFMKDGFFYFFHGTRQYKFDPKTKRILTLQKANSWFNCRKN
Procedure: as §3

hMSCs [6] = assay: Relative cell number via nuclei counts in differentiating hMSCs; format: cell-based, human
Procedure: as §2
Fig 5 Co-treatment of differentiating hMSCs with T0070907 and MMPIs. […] DMSO vehicle was maintained consistent between treatments and used as control. (B) Relative cell number was determined via nuclei counts. […] Scale bar 150 μm. ** P < 0.05, ++ P < 0.05, ## P < 0.05 compared to T0070907.

MMP-14 [7] = biological target: T4, MMP-14 (Homo sapiens, UniProt P50281); assay: Fluorogenic substrate enzyme inhibition assay, MMP-14; format: biochemical; details: 25°C, HEPES pH 7.5, 5 μM TCEP, fluorogenic substrate 1 μM
T4 construct: gift of Dr. Harald Tscheche (Bielefeld University, Bielefeld, Germany)
Procedure: as §5

hMSCs [8] = assay: Cytotoxicity assay (Trypan Blue, cell count); format: cell-based, human; details: 0–100 μM, 24 h
Procedure: Mercaptosulfonamide MMPIs were dissolved in 100% DMSO to generate 8 mM stock solutions and subsequently diluted with αMEM, while maintaining the final DMSO concentration at 1.25% (v/v). Media supplemented with a panel of final inhibitor concentrations ranging from 0–100 μM were then added to 70–80% confluent hMSC cultures and incubated for 24 h. At the end of treatment, inhibitor-conditioned media was removed and cells were washed with phosphate buffered saline (PBS) (pH 7.4) prior to being trypsinized (0.25% Trypsin, GE Healthcare), pelleted, and resuspended in 1 mL of fresh αMEM. Aliquots of the cell suspension for each condition were diluted 1:1 with 0.4% (w/v) Trypan Blue and counted with a hemocytometer. Relative cytotoxicity was determined by normalizing cell number for each condition against its respective control. A concentration was arbitrarily deemed cytotoxic if it produced a statistically significant reduction in cell number when compared to DMSO controls.

MMP-2 [9] = biological target: T5, MMP-2 (Homo sapiens, UniProt P08253); assay: Fluorogenic substrate enzyme inhibition assay, MMP-2; format: biochemical; details: 25°C, HEPES pH 7.5, 5 μM TCEP, fluorogenic substrate 1 μM
T5 construct: gift of Dr. L. Jack Windsor (Indiana University, Indianapolis, IN)
T5 sequence (P08253 110-660): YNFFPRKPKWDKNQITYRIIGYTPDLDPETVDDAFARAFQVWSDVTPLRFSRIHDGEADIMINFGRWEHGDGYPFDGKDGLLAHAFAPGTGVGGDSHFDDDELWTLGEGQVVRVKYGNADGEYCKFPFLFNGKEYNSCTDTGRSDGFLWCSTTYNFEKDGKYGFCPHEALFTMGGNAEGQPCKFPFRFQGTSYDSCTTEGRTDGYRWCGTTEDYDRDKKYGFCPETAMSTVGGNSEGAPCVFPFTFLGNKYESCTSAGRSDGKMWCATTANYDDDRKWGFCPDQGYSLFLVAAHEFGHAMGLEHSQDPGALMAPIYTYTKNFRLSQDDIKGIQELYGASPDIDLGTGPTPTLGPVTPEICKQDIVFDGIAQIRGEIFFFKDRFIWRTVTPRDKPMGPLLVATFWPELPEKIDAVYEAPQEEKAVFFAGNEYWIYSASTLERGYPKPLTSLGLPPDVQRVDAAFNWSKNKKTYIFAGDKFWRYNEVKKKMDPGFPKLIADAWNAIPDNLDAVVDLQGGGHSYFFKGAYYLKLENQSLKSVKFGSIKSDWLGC
Procedure: as §3

hMSCs [10] = assay: Adipogenic differentiation, lipid accumulation by Oil Red-O staining; format: cell-based, human; details: 10 μM, 21 days differentiation, vs DMSO control
Procedure: as §1, §2

[11] = system: MCF-7 breast cancer cells; design: method as in PMID 21498701; details: treatments up to 20 μM, without induction of apoptosis; cited from earlier work
PPARγ [12] = system: PPARγ; design: method as in PMID 11877444; details: read-out: apparent IC50; cited from earlier work
[13] = system: MDA-MB-231 breast cancer cells; design: method as in PMID 21498701; details: treatments up to 20 μM, without induction of apoptosis; cited from earlier work
[14] = design: method as in PMID 19752200; details: up to 50 μM; cited from earlier work
[15] = Day 21, compared to the negative control

SMILES: CNC(=O)[C@H](Cc1c[nH]c2ccccc12)NC(=O)[C@@H](CC(=O)NO)CC(C)C [GM6001, reference compound]
Further reduction of lipid accumulation on co-treatment with T0070907 (hMSCs [1]): ~ 20%
Reduction of lipid accumulation (hMSCs [10]): ~20%
IC50 (MMP-7): 2 ± 1.9 nM
IC50 (MMP-14 [7]): 0.5 ± 0.1 nM

SMILES: O=C(Nc1ccncc1)c1cc([N+](=O)[O-])ccc1Cl [T0070907]
Reduction of lipid accumulation (hMSCs [10]): 20%
Reduction of relative cell number (hMSCs [6]; 10 μM, nuclei counts): approximately 30%
Cytotoxicity [14]: minimally cytotoxic

SMILES: Cc1c(C)c2c(c(C)c1O)CCC(C)(COc1ccc(CC3SC(=O)NC3=O)cc1)O2 (centres unmarked) [Troglitazone]
Increase of lipid accumulation (hMSCs [10]): approximately 80%

Further lines, with some results ahead:

IC50 (MMP-9): 87 ± 9 nM
IC50 (MMP-7): 2400 ± 720 nM
IC50 (MMP-1): 1200 ± 370 nM
IC50 (MMP-14 [7]): 4.3 ± 0.7 nM
IC50 (MMP-2 [9]): 5.5 ± 4.2 nM
SMILES: NCCCCCC(=O)N1C[C@H](NS(=O)(=O)c2ccc(Oc3ccccc3)cc2)[C@@H](S)C1 (relative stereo) [YHJ-7-52]
Further reduction of lipid accumulation on co-treatment with T0070907 (hMSCs [1]): ~ 20%
Stability [2]: lower stability than the hydroxamate MMPI GM6001
PPARγ expression (PPARγ [3]): significantly suppressed PPARγ expression after day 9
MMP-14 gene expression level on Day 21 (MMP-14 [4]; [15]): significantly higher
MMP-14 gene expression level (MMP-14 [4]; over 21 days, vs DMSO control): does not affect
MMP-2 gene expression level on Day 21 (MMP-2 [5]; [15]): significantly higher
MMP-2 gene expression level (MMP-2 [5]; over 21 days, vs DMSO control): does not affect
Further reduction of cell number on co-treatment with T0070907 (hMSCs [6]; 10 μM compound with 10 μM T0070907): did not result in further cell number reductions
Concentration producing a significant reduction in cell number (hMSCs [8]): 100 µM

IC50 (MMP-9): > 200000 nM
IC50 MMP-9 (MMP-9): almost undetectable inhibitory activity
IC50 (MMP-7): > 200000 nM
IC50 MMP-7 (MMP-7): almost undetectable inhibitory activity
IC50 (MMP-1): > 200000 nM
IC50 MMP-1 (MMP-1): almost undetectable inhibitory activity
IC50 (MMP-14 [7]): > 200000 nM
IC50 MMP-14 (MMP-14 [7]): almost undetectable inhibitory activity
IC50 (MMP-2 [9]): > 100000 nM
IC50 MMP-2 (MMP-2 [9]): almost undetectable inhibitory activity
SMILES: NCCCCCC(=O)N1C[C@H](NS(=O)(=O)c2ccc(Oc3ccccc3)cc2)[C@@H](O)C1 (relative stereo) [YHJ-7-82]
Further reduction of lipid accumulation on co-treatment with T0070907 (hMSCs [1]): did not provide any additional reductions
Reduction of lipid accumulation (hMSCs [10]): did not produce a significant response
Cytotoxicity (hMSCs [8]): minimal cytotoxicity across all tested concentrations
